Reference: PubChem BioAssay (NCI)
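Each compound was tested at five concentrations against cells in 96-well plates for 48 hours. The concentration for 50% growth inhibition is given as GI50. TGI marks complete inhibition of growth.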

Key:
Experiment in all cases: growth of human tumour cells (NCI), 48 h
[1] = tested on: BT-549 breast
[2] = tested on: HCT-116 colon
[3] = tested on: HL-60(TB) leukemia
[4] = tested on: MDA-MB-231 breast
[5] = tested on: NCI-H522 lung
[6] = tested on: OVCAR-5 ovarian
[7] = tested on: SK-MEL-2 melanoma
[8] = tested on: SN12C renal
[9] = tested on: TK-10 renal
[10] = tested on: UACC-257 melanoma

Row | Structure (SMILES) | TGI [1] | TGI [2] | TGI [3] | TGI [4] | TGI [5] | TGI [6] | TGI [7] | TGI [8] | TGI [9] | TGI [10] | GI50 [1] | GI50 [2] | GI50 [3] | GI50 [4] | GI50 [5] | GI50 [6] | GI50 [7] | GI50 [8] | GI50 [9] | GI50 [10]
1 | Oc1ccc2c3c1OC1c4[nH]ncc4C[C@H]4[C@@H](C2)N(CC2CC2)CC[C@]314 (stereo partly drawn) | > 100 µM | > 100 µM | > 100 µM | > 100 µM | > 100 µM | > 100 µM | > 100 µM | > 100 µM | > 100 µM | > 100 µM |  |  |  |  |  |  |  |  |  | 
2 | COc1cc(N2C(=O)[C@H](c3ccccc3)C2c2ccc(SC)cc2)cc(OC)c1OC (stereo partly drawn) | 0.0937 µM | 1.17 µM | 0.0666 µM | 15.2 µM | 0.0734 µM | > 100 µM | > 100 µM | > 100 µM | > 100 µM | > 100 µM | 0.0299 µM | 0.0317 µM | 0.023 µM | 0.0321 µM | 0.0232 µM | 0.0613 µM | 0.0489 µM | 0.05 µM | 0.638 µM | 1.66 µM
3 | C=C1C(=O)O[C@H]2[C@H](OC(C)=O)[C@@H](C)CCCC3(C)OC3CCC3(CO3)[C@H](O)C[C@@H]12 (stereo partly drawn) | 32 µM | 13.1 µM |  | 23.9 µM | 28.7 µM | 12 µM | > 100 µM | 24.8 µM | 21.2 µM | 49.9 µM | 11.4 µM | 3.7 µM |  | 8.22 µM | 9.6 µM | 2.38 µM | 26.3 µM | 10.4 µM | 7.39 µM | 17.3 µM
4 | CC(C)(C)c1cc(/C=N/NC(=O)c2ccccc2NC(=O)c2cccs2)c(O)c(C(C)(C)C)c1 | > 100 µM | 14.4 µM |  | 19.1 µM | 30.4 µM | 62.4 µM | > 100 µM | 62.8 µM | 18.1 µM | > 100 µM | 4.65 µM | 0.713 µM |  | 1.11 µM | 1.84 µM | 2.83 µM | 20.2 µM | 1.92 µM | 0.994 µM | 6.18 µM
5 | O=C(O)c1ccc(C(O)(c2ccccc2)c2ccccc2)cc1 | > 100 µM | > 100 µM | > 100 µM | > 100 µM | > 100 µM | > 100 µM |  | > 100 µM | > 100 µM | > 100 µM |  |  |  |  |  |  |  |  |  | 
6 | CC(C)(c1ccccc1)c1cc(O)c(C(C)(C)c2ccccc2)cc1O | 5.31 µM | 3.36 µM | 5.53 µM | 6.28 µM | 16.7 µM | 8.58 µM | 13.9 µM | 11.5 µM |  | 10.7 µM | 1.57 µM | 1.35 µM | 1.84 µM | 1.43 µM | 3.67 µM | 2.63 µM | 2.96 µM | 2.46 µM |  | 2.1 µM
7 | COc1cc([N+](=O)[O-])c(OC)cc1-c1nc2sc(C)cn2c1/C(N)=N/C(=N)N | > 100 µM | > 100 µM | > 100 µM | 45.1 µM | > 100 µM | > 100 µM |  | 49.1 µM | 50.4 µM | 67 µM | 29.8 µM | > 100 µM | > 100 µM | 16.1 µM | 26.5 µM | > 100 µM |  | 18.9 µM | 20.3 µM | 18.4 µM
8 | N#Cc1c(NC(=O)c2ccc(F)cc2)sc2c1CCCC2 | > 25 µM | > 25 µM | > 25 µM | > 25 µM | > 25 µM | > 25 µM |  | > 25 µM | > 25 µM | > 25 µM | > 25 µM | > 25 µM | > 25 µM | > 25 µM | > 25 µM | > 25 µM |  | > 25 µM | > 25 µM | > 25 µM
9 | COc1ccc(C2CC(c3ccc(Nc4ccnc5cc(Cl)ccc45)cc3)=NN2C=O)cc1 (stereo not drawn) | 36.6 µM | > 100 µM | 5.16 µM | > 100 µM |  | > 100 µM |  | > 100 µM | 48.2 µM | > 100 µM | 10.9 µM | 9.97 µM | 2.23 µM | 20.1 µM |  | > 100 µM |  | 12.6 µM | 20.9 µM | 43.9 µM
10 | COC(=O)[C@]12CC[C@@H](C)[C@H](C)[C@@H]1C1=CC[C@@H]3[C@@]4(C)C[C@@H](OC(=O)/C=C/c5ccccc5)[C@H](O)[C@@](C)(CO)[C@@H]4[C@H](O)C[C@@]3(C)[C@]1(C)CC2 | 3.97 µM | 3.79 µM | 6.51 µM | 4.17 µM | 3.36 µM | 6 µM | 15.5 µM | 3.6 µM | 6.33 µM |  | 1.76 µM | 1.95 µM | 2.63 µM | 1.95 µM | 1.53 µM | 2.17 µM | 3.81 µM | 1.83 µM | 2.26 µM | 
